Assay results published in patent US10829440B2, “Antibacterial compounds and methods of making and using same” (Brown University, priority 2015, dated 2020).
≈ marks a conversion by molar mass, not a printed value.

Assays:
[1] = system: B. subtilis; assay: Resazurin microtiter MIC / serial dilution whole-cell assay; conditions: for Minimum inhibitory concentration (MIC), lowest concentration preventing color change blue to pink: serial dilution 250 μM down to 7.9 μM, triplicate, plates incubated only 30 minutes due to experimental error
Method: (§1) Bacillus subtilis ATCC 11775 was plated on agar from a 20% glycerol stock solution stored at −80° C. Inoculated plates were then incubated at 37° C. under aerobic conditions for 16 hours. Single cultures were transferred to Nutrient Broth (NB) and cultured for 16 hours under the same conditions.
(§2) Second passage cultures were standardized to O.D.600 nm=1.0.
The resazurin microtiter assay procedure described by Palomino and coworkers was used for assessing antimicrobial activity (Palomino. et al., 2002, Antimicrob. Agents Chemother. 46:2720-2722). The assay was performed in LB broth. Resazurin sodium salt powder was prepared in distilled water and filter sterilized at 0.001% (w/v) for MIC assays and at 0.01% (w/v) for single concentration assays. Compounds were first screened in MIC assays to assess whether growth inhibition was dependent on inhibitor concentration. The plates were incubated for 30 min under aerobic conditions. Growth controls containing no inhibitory compound, sterility controls without inoculation, and controls containing a known antibiotic, chloramphenicol, were also included. The innoculum was prepared from second passage cultures in Nutrient Broth (NB) and standardized to O.D.600 nm=1.0 and the wells inoculated with a 1:20 dilution. Serial two-fold dilutions of each compound in 100 μL of medium were prepared directly in 96 well plates at concentrations ranging from 250 μM to 7 μM. After incubation 30 μL of resazurin solution was added to each well and incubated for 30 min. A change in color from blue to pink indicated reduction of resazurin, and therefore bacterial growth. Minimum inhibitory concentration (MIC) was determined as the lowest drug concentration that prevented the color change from blue to pink. Inhibition was quantified by observation of color change. Later studies were carried out at a single inhibitor concentration of 250 μM. The plates were incubated for 4 h under aerobic conditions with the same controls. After incubation 30 μL of resazurin solution was added to each well and incubated for 60 min. Inhibition was quantified by fluorescence readings from plate reader SAFIRE, Firmware: V 2.20 08/02 Safire. […] Plates were held at 37° C. and fluorescence measurements were taken at 0, 5, 10, 20, 30, and 60 min after addition of dye. Lower fluorescence values correlate to greater degrees of inhibition.
Compounds were tested in vivo for their capacity to inhibit B. subtilis growth. […] Resorufin is also fluorescent and can be measured by a plate-reader.
Each dilution was run in triplicate. […] Minimum inhibitory concentration (MIC) was determined as the lowest drug concentration that prevented the color change from blue to pink. The fluorescence was again quantified by a plate reader, and two identical plates were run simultaneously.

[2] = system: B. subtilis; assay: Single concentration (250 μM) whole-cell resazurin fluorescence assay; conditions: for degree of inhibition (smallest values of fluorescence): 250 μM inhibitor, fluorescence at 60 min
Method: as §1, §2
The resazurin microtiter assay procedure described by Palomino and coworkers was used for assessing antimicrobial activity (Palomino. et al., 2002, Antimicrob. Agents Chemother. 46:2720-2722). The assay was performed in LB broth. Resazurin sodium salt powder was prepared in distilled water and filter sterilized at 0.001% (w/v) for MIC assays and at 0.01% (w/v) for single concentration assays. […] Growth controls containing no inhibitory compound, sterility controls without inoculation, and controls containing a known antibiotic, chloramphenicol, were also included. […] Later studies were carried out at a single inhibitor concentration of 250 μM. The plates were incubated for 4 h under aerobic conditions with the same controls. After incubation 30 μL of resazurin solution was added to each well and incubated for 60 min. Inhibition was quantified by fluorescence readings from plate reader SAFIRE, Firmware: V 2.20 08/02 Safire. Excitation wavelength set to 560 nm, emission wavelength set to 590 nm. Well containing dye and non-inoculated cells was used as gain set. Plates were held at 37° C. and fluorescence measurements were taken at 0, 5, 10, 20, 30, and 60 min after addition of dye. Lower fluorescence values correlate to greater degrees of inhibition.
Compounds were tested in vivo for their capacity to inhibit B. subtilis growth. In order to determine growth inhibition, a resazurin whole-cell assay was used (Kuhn, et al., 2014, Medchemcomm 5:1213-1217). […] The resazurin is naturally a blue color, but with reductive species produced during bacterial growth, it is reduced to resorufin, which appears pink. Resorufin is also fluorescent and can be measured by a plate-reader.
In an initial set-up, each compound was evaluated at the single concentration of 250 μM in triplicate. Growth controls containing no inhibitory compound, sterility controls without inoculation, and controls containing a known antibiotic, chloramphenicol, were also included. After incubation of the bacteria with the inhibitors for four hours, resazurin dye was added and the plate was immediately placed in a plate reader. Fluorescence of each well was measured at 590 nm at 0, 5, 10, 20, and 60 min after addition of the dye. A higher growth rate of bacteria produces more resorufin and thus more fluorescence. Lower fluorescence therefore indicates better growth inhibition.
Fluorescence was further evaluated as it developed over time.

[3] = system: S. pneumoniae; assay: MIC against Gram-positive organisms: S. pneumoniae; format: cell-based, Streptococcus pneumoniae; conditions: for MIC: Streptococcus pneumoniae, read-out: Minimum inhibitory concentration (MIC) S. pneumoniae
[4] = system: S. aureus; assay: MIC against Gram-positive organisms: S. aureus; format: cell-based, Staphylococcus aureus; conditions: for MIC: Staphylococcus aureus, read-out: Minimum inhibitory concentration (MIC) S. aureus
[5] = biological target: FlgJ (GH73) (Salmonella typhimurium, UniProt P15931); assay: Inhibition of FlgJ (GH73); format: biochemical, Salmonella enterica
Method: Activity was measured as described in Herlihey, et al. 2014, J. Biol Chem 289(45):31029.

[6] = system: E. coli; conditions: cited from earlier work
[7] = biological target: LytG (GH73) (Bacillus subtilis, UniProt O32083); assay: In vitro GlcNAcase inhibition, turbidometric assay with purified peptidoglycan; format: biochemical, B. subtilis
From the text: FIG. 9 is a graph illustrating inhibition of LytG (GH73) from B. subtilis by fgka. The assay involved in vitro GlcNAcase inhibition of B. subtilis LytG by fgka, as measured using turbidometric assays with purified peptidoglycan (Horsburgh, et al., 2003, Biochemistry 42:257).

[8] = system: B. subtilis; assay: MIC against Gram-positive organisms: B. subtilis; format: cell-based; conditions: Bacillus subtilis; read-out: Minimum inhibitory concentration (MIC) B. subtilis
[9] = system: peptidoglycan synthesis/metabolism in B. subtilis; assay: UDP-MurNAc-pentapeptide accumulation (nucleotide sugar extraction, C18-RP-HPLC); format: cell-based, Bacillus subtilis; conditions: 4×MIC for 1 h after chloramphenicol pretreatment
Method: Ugi-derived terminal alkynes target peptidoglycan synthesis/metabolism. B. subtilis was grown to mid-exponential phase (O.D.600˜0.6) and all cultures treated with Chloramphenicol (Cm) ([…]) for 15 min. Cultures were then exposed to vancomycin (Van) ([…]) or fgkc (4×MIC) for 1 h. Nucleotide sugars were extracted with hot water and separated by C18-RP-HPLC. (*) denotes retention time of UDP-MurNAc-pentapeptide.

[10] = system: P. difficile; assay: MIC against Gram-positive organisms: P. difficile; format: cell-based, Clostridium difficile (Peptoclostridium difficile); conditions: Clostridioides difficile; read-out: Minimum inhibitory concentration (MIC) P. difficile

Sequence of FlgJ (GH73) (P15931 whole entry): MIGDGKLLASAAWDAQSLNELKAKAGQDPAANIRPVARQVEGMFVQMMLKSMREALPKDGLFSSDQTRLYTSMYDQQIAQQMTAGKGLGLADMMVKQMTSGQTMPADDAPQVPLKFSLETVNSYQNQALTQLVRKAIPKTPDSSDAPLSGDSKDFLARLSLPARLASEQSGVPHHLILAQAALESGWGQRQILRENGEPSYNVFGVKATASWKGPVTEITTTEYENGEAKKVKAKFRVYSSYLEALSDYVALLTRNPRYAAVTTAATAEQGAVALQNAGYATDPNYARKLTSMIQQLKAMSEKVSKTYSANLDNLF
Sequence of LytG (GH73) (O32083 30-282): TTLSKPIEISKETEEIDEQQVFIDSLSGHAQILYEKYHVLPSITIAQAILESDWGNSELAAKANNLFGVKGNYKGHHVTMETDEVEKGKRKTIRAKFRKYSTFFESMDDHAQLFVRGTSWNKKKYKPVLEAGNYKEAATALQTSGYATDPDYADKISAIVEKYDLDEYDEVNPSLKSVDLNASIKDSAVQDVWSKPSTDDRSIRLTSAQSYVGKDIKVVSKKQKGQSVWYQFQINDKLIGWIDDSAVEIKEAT

For `CCCCNC(=O)C(C1CCCCC1)N(C(=O)c1ccccc1I)C(C)C` (stereo not shown) [fgoa], the “Minimum inhibitory concentration (MIC), lowest concentration preventing color change blue to pink” value [1] was 62.5 µM (≈ 30.3 µg/mL).

With `COc1ccc(C(C(=O)NCc2ccccc2)N(C(=O)c2ccccc2I)c2ccccc2)cc1` (stereo not shown) [fbqb] the “activity (structure-activity comparison)” value ([2]; 250 μM, compared to aliphatic derivatives) was “lower activity”.

With `C#CCN(C(=O)c1ccccc1I)C(C(=O)NC1CCCCC1)C1CCCCC1` (stereo not shown) [fgbc] the “antibacterial activity against S. pneumoniae” value [3] was “antibacterial activity” and the MIC [3] was 3.56 µg/mL (≈ 7.03 µM).

For `C#CCN(C(=O)c1ccccc1I)C(C(=O)NCCCC)C1CCCCC1` (stereo not shown) [fgba], the “antibacterial activity against S. aureus” value [4] was “antibacterial activity”, the MIC [4] was 2.81 µg/mL (≈ 5.85 µM) and the “inhibition of FlgJ (GH73)” value [5] was “weak inhibition”.

For `CC1=N[C@@H]2[C@@H](O)[C@H](O)[C@@H](CO)O[C@@H]2S1` [NAG-thiazoline], the “effect on the viability of E. coli” value [6] is given as “no effect”.

For `C#CCN(C(=O)c1ccccc1I)C(C(=O)NCc1ccccc1)C1CCCCC1` (stereo not shown) [fgbb], the “antibacterial activity against S. pneumoniae” value [3] was “antibacterial activity” and the MIC [3] was 3.62 µg/mL (≈ 7.04 µM).

Molecule `CCCCNC(=O)C(C1CCCCC1)N(C(=O)c1ccccc1I)c1ccccc1` (stereo not shown) [fgqa] has an MIC [4] of 3.64 µg/mL (≈ 7.02 µM).

In the case of `CCCCNC(=O)C(C1CCCCC1)N(Cc1cn(C2OC(CO)C(O)C(O)C2NC(C)=O)nn1)C(=O)c1ccccc1I` (stereo not shown) [BI.fgba], the “inhibition of GlcNAcase LytG” value [7] is reported as “inhibits”, the “inhibition of FlgJ (GH73)” value [5] is reported as “weak inhibition” and the MIC ([1]; Bacillus subtilis, read-out: minimum inhibitory concentration (MIC)) is reported as 63 µM (≈ 45.8 µg/mL). The bacteriostatic activity ([1]; bacterial strain B. subtilis) was “concentration-dependent bacteriostatic activity”.

For `O=C(NC1CCCCC1)C(C1CCCCC1)N(C(=O)c1ccccc1I)C1CCCCC1` (stereo not shown) [fgkc], the “antibacterial activity against S. pneumoniae” value [3] was “antibacterial activity”, the MIC [8] was 1.65 µg/mL (≈ 3 µM) and the UDP-MurNAc-pentapeptide accumulation [9] was “results in UDP-MurNAc-pentapeptide accumulation”. The “antibacterial activity against B. subtilis Lyt G” value [2] was “antibacterial activity” and the “degree of inhibition (smallest values of fluorescence)” value [2] was “highest degree of inhibition”.

Molecule `CCCCNC(=O)C(C1CCCCC1)N(C(=O)c1ccccc1I)C1CCCCC1` (stereo not shown) [fgka] has an MIC [8] of 11.5 µg/mL (≈ 22 µM).

In the case of `O=C(NCc1ccccc1)C(C1CCCCC1)N(C(=O)c1ccccc1I)C1CCCCC1` (stereo not shown) [fgkb], the “antibacterial activity against B. subtilis Lyt G” value [2] is reported as “antibacterial activity” and the “degree of inhibition (smallest values of fluorescence)” value [2] is reported as “highest degree of inhibition”.

For `C#CCN(C(=O)c1ccccc1)C(C(=O)NCCCC)C1CCCCC1` (stereo not shown) [rgba], the “Minimum inhibitory concentration (MIC), lowest concentration preventing color change blue to pink” value [1] was 250 µM (≈ 88.6 µg/mL).

Work on `CCCCNC(=O)C(C1CCCCC1)N(C(=O)c1ccccc1I)C(C)(C)C` (stereo not shown) [fgna] yielded an MIC [10] of 17.5 µg/mL (≈ 35.1 µM).
